Measurements taken from PubChem BioAssay (NCI).
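Following 48 hours of exposure in 96-well plates, responses at five concentrations were used to interpolate endpoints linearly. The concentration for full growth arrest is given as TGI.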

Key:
Assay in all cases: NCI-60 cell line screen, 48 h
NCI-H460 lung = test system: NCI-H460 lung
SW-620 colon = test system: SW-620 colon
DMS 114 small cell lung = test system: DMS 114 small cell lung
SF-295 CNS = test system: SF-295 CNS
NCI-H226 lung = test system: NCI-H226 lung
K-562 leukemia = test system: K-562 leukemia
HT29 colon = test system: HT29 colon
HL-60(TB) leukemia = test system: HL-60(TB) leukemia
SNB-19 CNS = test system: SNB-19 CNS
HOP-62 NSCLC = test system: HOP-62 NSCLC
LOX IMVI melanoma = test system: LOX IMVI melanoma
M19-MEL melanoma = test system: M19-MEL melanoma
UACC-62 melanoma = test system: UACC-62 melanoma
EKVX NSCLC = test system: EKVX NSCLC
SNB-78 CNS = test system: SNB-78 CNS
HOP-18 NSCLC = test system: HOP-18 NSCLC
A549 NSCLC = test system: A549 NSCLC
UACC-257 melanoma = test system: UACC-257 melanoma
M14 melanoma = test system: M14 melanoma
DLD-1 colon = test system: DLD-1 colon
SK-MEL-5 melanoma = test system: SK-MEL-5 melanoma
KM12 colon = test system: KM12 colon
SR leukemia = test system: SR leukemia
U251 CNS = test system: U251 CNS
OVCAR-5 ovarian = test system: OVCAR-5 ovarian
SNB-75 CNS = test system: SNB-75 CNS
CCRF-CEM leukemia = test system: CCRF-CEM leukemia
COLO 205 colon = test system: COLO 205 colon
SF-268 CNS = test system: SF-268 CNS
CAKI-1 renal = test system: CAKI-1 renal
786-0 renal = test system: 786-0 renal
MOLT-4 leukemia = test system: MOLT-4 leukemia
NCI-H23 lung = test system: NCI-H23 lung
SF-539 CNS = test system: SF-539 CNS
RPMI-8226 leukemia = test system: RPMI-8226 leukemia
UO-31 renal = test system: UO-31 renal
ACHN renal = test system: ACHN renal
HCC-2998 colon = test system: HCC-2998 colon
TK-10 renal = test system: TK-10 renal
SN12C renal = test system: SN12C renal
HCT-116 colon = test system: HCT-116 colon
IGROV1 ovarian = test system: IGROV1 ovarian
XF 498 CNS = test system: XF 498 CNS
DMS 273 small cell lung = test system: DMS 273 small cell lung
OVCAR-8 ovarian = test system: OVCAR-8 ovarian
A498 renal = test system: A498 renal
NCI-H522 lung = test system: NCI-H522 lung
SK-OV-3 ovarian = test system: SK-OV-3 ovarian
LXFL 529 NSCLC = test system: LXFL 529 NSCLC
MALME-3M melanoma = test system: MALME-3M melanoma
SK-MEL-2 melanoma = test system: SK-MEL-2 melanoma
OVCAR-3 ovarian = test system: OVCAR-3 ovarian
KM20L2 colon = test system: KM20L2 colon
HCT-15 colon = test system: HCT-15 colon
SK-MEL-28 melanoma = test system: SK-MEL-28 melanoma
HOP-92 NSCLC = test system: HOP-92 NSCLC
OVCAR-4 ovarian = test system: OVCAR-4 ovarian

With `CC(C)NCCCC(C)Nc1ccnc2ccc3nn(C)nc3c12` (stereo unspecified) the TGI (NCI-H460 lung) was greater than 100 µM, the TGI (SW-620 colon) was greater than 100 µM and the TGI (DMS 114 small cell lung) was greater than 100 µM. It also gave a TGI (SF-295 CNS) greater than 100 µM, a TGI (NCI-H226 lung) greater than 100 µM and a TGI (K-562 leukemia) greater than 100 µM. It also gave a TGI (HT29 colon) greater than 100 µM, a TGI (HL-60(TB) leukemia) greater than 100 µM and a TGI (SNB-19 CNS) greater than 100 µM. It also gave a TGI (HOP-62 NSCLC) greater than 100 µM, a TGI (LOX IMVI melanoma) greater than 100 µM and a TGI (M19-MEL melanoma) greater than 100 µM. For the same compound, the TGI (UACC-62 melanoma) was greater than 100 µM, the TGI (EKVX NSCLC) was greater than 100 µM and the TGI (SNB-78 CNS) was greater than 100 µM. It also gave a TGI (HOP-18 NSCLC) greater than 100 µM, a TGI (A549 NSCLC) greater than 100 µM and a TGI (UACC-257 melanoma) greater than 100 µM. The TGI (M14 melanoma) was greater than 100 µM, the TGI (DLD-1 colon) was greater than 100 µM and the TGI (SK-MEL-5 melanoma) was greater than 100 µM. For the same compound, the TGI (KM12 colon) was greater than 100 µM, the TGI (SR leukemia) was greater than 100 µM and the TGI (U251 CNS) was greater than 100 µM. It also gave a TGI (OVCAR-5 ovarian) greater than 100 µM, a TGI (SNB-75 CNS) greater than 100 µM and a TGI (CCRF-CEM leukemia) greater than 100 µM. It also gave a TGI (COLO 205 colon) greater than 100 µM, a TGI (SF-268 CNS) greater than 100 µM and a TGI (CAKI-1 renal) greater than 100 µM. It also gave a TGI (786-0 renal) greater than 100 µM, a TGI (MOLT-4 leukemia) greater than 100 µM and a TGI (NCI-H23 lung) greater than 100 µM. The TGI (SF-539 CNS) was greater than 100 µM, the TGI (RPMI-8226 leukemia) was greater than 100 µM and the TGI (UO-31 renal) was greater than 100 µM. The TGI (ACHN renal) was greater than 100 µM, the TGI (HCC-2998 colon) was greater than 100 µM and the TGI (TK-10 renal) was greater than 100 µM. For the same compound, the TGI (SN12C renal) was greater than 100 µM, the TGI (HCT-116 colon) was greater than 100 µM and the TGI (IGROV1 ovarian) was greater than 100 µM. The TGI (XF 498 CNS) was greater than 100 µM, the TGI (DMS 273 small cell lung) was greater than 100 µM and the TGI (OVCAR-8 ovarian) was greater than 100 µM. The TGI (A498 renal) was greater than 100 µM, the TGI (NCI-H522 lung) was greater than 100 µM and the TGI (SK-OV-3 ovarian) was greater than 100 µM. It also gave a TGI (LXFL 529 NSCLC) greater than 100 µM and a TGI (MALME-3M melanoma) greater than 100 µM.
For `C=CCSc1ncnc2c1ncn2C1OC(CO)C(O)C1O` (stereo unspecified), the TGI (NCI-H460 lung) was greater than 100 µM, the TGI (SW-620 colon) was greater than 100 µM and the TGI (DMS 114 small cell lung) was 70.4 µM. For the same compound, the TGI (SF-295 CNS) was greater than 100 µM, the TGI (NCI-H226 lung) was greater than 100 µM and the TGI (SK-MEL-2 melanoma) was greater than 100 µM. It also gave a TGI (K-562 leukemia) greater than 100 µM, a TGI (HT29 colon) greater than 100 µM and a TGI (OVCAR-3 ovarian) greater than 100 µM. For the same compound, the TGI (HL-60(TB) leukemia) was greater than 100 µM, the TGI (SNB-19 CNS) was greater than 100 µM and the TGI (HOP-62 NSCLC) was greater than 100 µM. For the same compound, the TGI (KM20L2 colon) was greater than 100 µM, the TGI (LOX IMVI melanoma) was greater than 100 µM and the TGI (M19-MEL melanoma) was greater than 100 µM. It also gave a TGI (UACC-62 melanoma) greater than 100 µM, a TGI (EKVX NSCLC) greater than 100 µM and a TGI (SNB-78 CNS) greater than 100 µM. It also gave a TGI (HOP-18 NSCLC) greater than 100 µM, a TGI (A549 NSCLC) greater than 100 µM and a TGI (UACC-257 melanoma) greater than 100 µM. It also gave a TGI (M14 melanoma) greater than 100 µM, a TGI (DLD-1 colon) greater than 100 µM and a TGI (SK-MEL-5 melanoma) greater than 100 µM. For the same compound, the TGI (KM12 colon) was greater than 100 µM, the TGI (SR leukemia) was greater than 100 µM and the TGI (HCT-15 colon) was greater than 100 µM. The TGI (U251 CNS) was greater than 100 µM, the TGI (OVCAR-5 ovarian) was greater than 100 µM and the TGI (SNB-75 CNS) was greater than 100 µM. For the same compound, the TGI (SK-MEL-28 melanoma) was greater than 100 µM, the TGI (CCRF-CEM leukemia) was greater than 100 µM and the TGI (COLO 205 colon) was greater than 100 µM. The TGI (SF-268 CNS) was greater than 100 µM, the TGI (CAKI-1 renal) was greater than 100 µM and the TGI (786-0 renal) was greater than 100 µM. It also gave a TGI (MOLT-4 leukemia) greater than 100 µM, a TGI (HOP-92 NSCLC) greater than 100 µM and a TGI (NCI-H23 lung) greater than 100 µM. It also gave a TGI (SF-539 CNS) greater than 100 µM, a TGI (RPMI-8226 leukemia) greater than 100 µM and a TGI (UO-31 renal) greater than 100 µM. For the same compound, the TGI (ACHN renal) was greater than 100 µM, the TGI (HCC-2998 colon) was greater than 100 µM and the TGI (OVCAR-4 ovarian) was greater than 100 µM. The TGI (TK-10 renal) was greater than 100 µM, the TGI (SN12C renal) was greater than 100 µM and the TGI (HCT-116 colon) was greater than 100 µM. The TGI (IGROV1 ovarian) was greater than 100 µM, the TGI (XF 498 CNS) was greater than 100 µM and the TGI (DMS 273 small cell lung) was greater than 100 µM. It also gave a TGI (OVCAR-8 ovarian) of 18.5 µM, a TGI (A498 renal) greater than 100 µM and a TGI (NCI-H522 lung) greater than 100 µM. For the same compound, the TGI (SK-OV-3 ovarian) was greater than 100 µM and the TGI (MALME-3M melanoma) was greater than 100 µM.
